Results from patent publication US9593108B2, “Compounds and methods for antiviral treatment” (PTC Therapeutics, Inc., priority 2009, dated 2017).

Legend:
[1] = tested on: HCV replicon RNA (GenBank Accession No. AJ242654); assay: HCV Replicon Assay (replicon RNA reduction and/or Fluc reporter signal); assay type: cell-based, Hepatitis C virus; conditions: Hepatitis C virus, 72 h, replicon-containing cells cultured with test compound for up to 3 days
How it was run: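 Bicistronic replicon-containing cells cultured with compound for up to 3 days, with interferon as positive control. Inhibition quantified by replicon RNA reduction and/or Fluc reporter signal; IC50 values generally derived from replicon RNA reduction.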

| SMILES | IC50 [1] [nM] | melting point |
| --- | --- | --- |
| Cc1cnc2c(c1)c(C#N)c(-c1ccc(S(=O)(=O)N[C@@H](C)C(F)(F)F)cn1)n2-c1ccccc1F [Cpd 501, 6-[3-cyano-1-(2-fluorophenyl)-5-methyl-1H-pyrrolo[2,3-b]pyridin-2-yl]-N-[(2S)-1,1,1-trifluoropropan-2-yl]pyridine-3-sulfonamide] | < 500 | 128 °C (dec.) |
| Cc1cnc2c(c1)c(C#N)c(-c1ccc(S(=O)(=O)N[C@@H](C)C(F)(F)F)cn1)n2-c1cccc(F)c1 [Cpd 502, 6-[3-cyano-1-(3-fluorophenyl)-5-methyl-1H-pyrrolo[2,3-b]pyridin-2-yl]-N-[(2S)-1,1,1-trifluoropropan-2-yl]pyridine-3-sulfonamide] | < 500 | 238 to 240 °C |
| Cc1cnc2c(c1)c(C#N)c(-c1ccc(S(=O)(=O)N[C@@H](C)C(F)(F)F)cn1)n2-c1ccc(F)cc1 [Cpd 503, 6-[3-cyano-1-(4-fluorophenyl)-5-methyl-1H-pyrrolo[2,3-b]pyridin-2-yl]-N-[(2S)-1,1,1-trifluoropropan-2-yl]pyridine-3-sulfonamide] | < 500 | 253 to 254 °C |
| Cc1cnc2c(c1)c(C#N)c(-c1ccc(S(=O)(=O)N[C@@H](C)C(F)(F)F)cn1)n2-c1cc(F)ccc1F [Cpd 504, 6-[3-cyano-1-(2,5-difluorophenyl)-5-methyl-1H-pyrrolo[2,3-b]pyridin-2-yl]-N-[(2S)-1,1,1-trifluoropropan-2-yl]pyridine-3-sulfonamide] | < 500 | 232 to 234 °C |
| Cc1cnc2c(c1)c(C#N)c(-c1ccc(S(=O)(=O)N[C@@H](C)C(F)(F)F)cn1)n2-c1ccc(F)c(F)c1 [Cpd 505, 6-[3-cyano-1-(3,4-difluorophenyl)-5-methyl-1H-pyrrolo[2,3-b]pyridin-2-yl]-N-[(2S)-1,1,1-trifluoropropan-2-yl]pyridine-3-sulfonamide] | < 500 | 250 to 252 °C |
| Cc1cnc2c(c1)c(C#N)c(-c1ccc(S(=O)(=O)N[C@@H](C)C(F)(F)F)cn1)n2-c1cc(F)cc(F)c1 [Cpd 506, 6-[3-cyano-1-(3,5-difluorophenyl)-5-methyl-1H-pyrrolo[2,3-b]pyridin-2-yl]-N-[(2S)-1,1,1-trifluoropropan-2-yl]pyridine-3-sulfonamide] | < 500 | 260 to 262 °C |
| Cc1cnc2c(c1)c(C#N)c(-c1ccc(S(=O)(=O)N[C@@H](C)C(F)(F)F)cn1)n2-c1cscn1 [Cpd 507, 6-[3-cyano-5-methyl-1-(1,3-thiazol-4-yl)-1H-pyrrolo[2,3-b]pyridin-2-yl]-N-[(2S)-1,1,1-trifluoropropan-2-yl]pyridine-3-sulfonamide] | < 500 | 186 to 188 °C |
| Cc1cnc2c(c1)c(C#N)c(-c1ccc(S(=O)(=O)N[C@@H](C)C(F)(F)F)cn1)n2-c1cc(C#N)ncn1 [Cpd 508, 6-[3-cyano-1-(6-cyanopyrimidin-4-yl)-5-methyl-1H-pyrrolo[2,3-b]pyridin-2-yl]-N-[(2S)-1,1,1-trifluoropropan-2-yl]pyridine-3-sulfonamide] | < 500 | 120 to 122 °C |
| CCc1cnc2c(c1)c(C#N)c(-c1ccc(S(=O)(=O)N[C@@H](C)C(F)(F)F)cn1)n2-c1cccs1 [Cpd 509, 6-[3-cyano-5-ethyl-1-(thiophen-2-yl)-1H-pyrrolo[2,3-b]pyridin-2-yl]-N-[(2S)-1,1,1-trifluoropropan-2-yl]pyridine-3-sulfonamide] | < 500 | 169 to 171 °C |
| CCc1cnc2c(c1)c(C#N)c(-c1ccc(S(=O)(=O)N[C@@H](C)C(F)(F)F)cn1)n2-c1ccc(F)cc1 [Cpd 510, 6-[3-cyano-5-ethyl-1-(4-fluorophenyl)-1H-pyrrolo[2,3-b]pyridin-2-yl]-N-[(2S)-1,1,1-trifluoropropan-2-yl]pyridine-3-sulfonamide] | < 500 | 212 to 214 °C |
| CCc1cnc2c(c1)c(C#N)c(-c1ccc(S(=O)(=O)N[C@@H](C)C(F)(F)F)cn1)n2-c1cccc(F)c1 [Cpd 511, 6-[3-cyano-5-ethyl-1-(3-fluorophenyl)-1H-pyrrolo[2,3-b]pyridin-2-yl]-N-[(2S)-1,1,1-trifluoropropan-2-yl]pyridine-3-sulfonamide] | < 500 | 195 to 197 °C |
| CCc1cnc2c(c1)c(C#N)c(-c1ccc(S(=O)(=O)N[C@@H](C)C(F)(F)F)cn1)n2-c1nccs1 [Cpd 512, 6-[3-cyano-5-ethyl-1-(1,3-thiazol-2-yl)-1H-pyrrolo[2,3-b]pyridin-2-yl]-N-[(2S)-1,1,1-trifluoropropan-2-yl]pyridine-3-sulfonamide] | < 500 | 229 to 231 °C |
| [2H]C(C)(C)NS(=O)(=O)c1ccc(-c2c(C#N)c3cc(C(F)(F)F)cnc3n2C2CCC2)nc1 [Cpd 513, 6-[3-cyano-1-cyclobutyl-5-(trifluoromethyl)-1H-pyrrolo[2,3-b]pyridin-2-yl]-N-[(2-deuterium)propan-2-yl]pyridine-3-sulfonamide] | < 500 | 191 to 193 °C |
| Cc1cnc2c(c1)c(C#N)c(-c1ccc(S(=O)(=O)N[C@@H](C)C(F)(F)F)cn1)n2-c1nc(C#N)cs1 [Cpd 514, 6-[3-cyano-1-(4-cyano-1,3-thiazol-2-yl)-5-methyl-1H-pyrrolo[2,3-b]pyridin-2-yl]-N-[(2S)-1,1,1-trifluoropropan-2-yl]pyridine-3-sulfonamide] | 500 to 2000 | 259 to 261 °C |
| CC(C)(C)NS(=O)(=O)c1ccc(-c2c(C#N)c3cc(Cl)cnc3n2-c2nccs2)nc1 [Cpd 515, N-tert-butyl-6-[5-chloro-3-cyano-1-(1,3-thiazol-2-yl)-1H-pyrrolo[2,3-b]pyridin-2-yl]pyridine-3-sulfonamide] | < 500 | 216 to 218 °C |
| CC(C)(C)NS(=O)(=O)c1ccc(-c2c(C#N)c3cc(C(F)(F)F)cnc3n2-c2ccccc2)nc1 [Cpd 516, N-tert-butyl-6-[3-cyano-1-phenyl-5-(trifluoromethyl)-1H-pyrrolo[2,3-b]pyridin-2-yl]pyridine-3-sulfonamide] | < 500 | 201.2 to 202.4 °C |
| CC(C)(C)NS(=O)(=O)c1ccc(-c2c(C#N)c3cc(C(F)(F)F)cnc3n2-c2ccc(F)cc2)nc1 [Cpd 517, N-tert-butyl-6-[3-cyano-1-(4-fluorophenyl)-5-(trifluoromethyl)-1H-pyrrolo[2,3-b]pyridin-2-yl]pyridine-3-sulfonamide] | 500 to 2000 | 228.3 to 229.4 °C |
| CC(C)(C)NS(=O)(=O)c1ccc(-c2c(C#N)c3cc(C(F)(F)F)cnc3n2-c2ccccn2)nc1 [Cpd 518, N-tert-butyl-6-[3-cyano-1-(pyridin-2-yl)-5-(trifluoromethyl)-1H-pyrrolo[2,3-b]pyridin-2-yl]pyridine-3-sulfonamide] | < 500 | 210.4 to 211.8 °C |
| CC(C)(C)NS(=O)(=O)c1ccc(-c2c(C#N)c3cc(F)cnc3n2-c2ccccc2)nc1 [Cpd 519, N-tert-butyl-6-(3-cyano-5-fluoro-1-phenyl-1H-pyrrolo[2,3-b]pyridin-2-yl)pyridine-3-sulfonamide] | < 500 | 239.4 to 241.5 °C |
| CC(C)(C)NS(=O)(=O)c1ccc(-c2c(C#N)c3cc(F)cnc3n2-c2ccc(F)cc2)nc1 [Cpd 520, N-tert-butyl-6-[3-cyano-5-fluoro-1-(4-fluorophenyl)-1H-pyrrolo[2,3-b]pyridin-2-yl]pyridine-3-sulfonamide] | 2000 to 5000 | 259.1 to 260.7 °C |
| CC(C)(C)NS(=O)(=O)c1ccc(-c2c(C#N)c3cc(F)cnc3n2-c2cnccn2)nc1 [Cpd 521, N-tert-butyl-6-[3-cyano-5-fluoro-1-(pyrazin-2-yl)-1H-pyrrolo[2,3-b]pyridin-2-yl]pyridine-3-sulfonamide] | < 500 | 245 to 247 °C |
| CC(C)(C)NS(=O)(=O)c1ccc(-c2c(C#N)c3cc(F)cnc3n2-c2ccccn2)nc1 [Cpd 522, N-tert-butyl-6-[3-cyano-5-fluoro-1-(pyridin-2-yl)-1H-pyrrolo[2,3-b]pyridin-2-yl]pyridine-3-sulfonamide] | < 500 | 202.2 to 204.3 °C |
| CC(C)(C)NS(=O)(=O)c1ccc(-c2c(C(N)=O)c3cc(C(F)(F)F)cnc3n2-c2ccccc2)nc1 [Cpd 523, 2-[5-(tert-butylsulfamoyl)pyridin-2-yl]-1-phenyl-5-(trifluoromethyl)-1H-pyrrolo[2,3-b]pyridine-3-carboxamide] | < 500 | 241.8 to 243 °C |
| Cc1cnc2c(c1)c(C#N)c(-c1ccc(S(=O)(=O)NC(C)(C)C)cn1)n2-c1ccccc1 [Cpd 524, N-tert-butyl-6-(3-cyano-5-methyl-1-phenyl-1H-pyrrolo[2,3-b]pyridin-2-yl)pyridine-3-sulfonamide] | 500 to 2000 | 228.6 to 229.3 °C |
| Cc1cnc2c(c1)c(C#N)c(-c1ccc(S(=O)(=O)NC(C)(C)C)cn1)n2-c1ccccn1 [Cpd 525, N-tert-butyl-6-[3-cyano-5-methyl-1-(pyridin-2-yl)-1H-pyrrolo[2,3-b]pyridin-2-yl]pyridine-3-sulfonamide] | 500 to 2000 | 214.2 to 215.4 °C |
| CC(C)(C)NS(=O)(=O)c1ccc(-c2c(C#N)c3cc(C(F)(F)F)cnc3n2-c2cnccn2)nc1 [Cpd 526, N-tert-butyl-6-[3-cyano-1-(pyrazin-2-yl)-5-(trifluoromethyl)-1H-pyrrolo[2,3-b]pyridin-2-yl]pyridine-3-sulfonamide] | < 500 | 214.2 to 215.4 °C |
| CC(C)(C)NS(=O)(=O)c1ccc(-c2c(C(N)=O)c3cc(F)cnc3n2-c2ccccc2)nc1 [Cpd 527, 2-[5-(tert-butylsulfamoyl)pyridin-2-yl]-5-fluoro-1-phenyl-1H-pyrrolo[2,3-b]pyridine-3-carboxamide] | 500 to 2000 | 275.2 to 276.9 °C |
